The IC50 is the concentration at which inhibition is half-maximal. For orientation: melting point means the temperature of the solid-liquid transition.

The structures appear in SMILES notation. Where two headings read alike, the source gives them in different places.

Data on eleven compounds can be found in US10239836B2, “Benzenecarbothioccyclopenta[c] pyrrole-1,3-dione compounds and process for synthesis thereof” (Council of Scientific & Industrial Research, priority 2014, dated 2019).

The nature of data set [1]: Cytotoxicity assay (MTT viability). In kind it is cell-based, Mouse. The settings on record: mouse; RAW 264.7 cells, MTT, 24 h treatment, serum free. On the procedure:
(§1) Mouse macrophage cell line RAW 264.7 was maintained in laboratory at 37° C. in
(§2) RPMI-1640 media supplemented with 10% heat-inactivated fetal bovine serum (FBS) and penicillin/streptomycin.
(§3) Viability of cultured cells was determined by (4,5-dimethylthiazol-2-yl)-2,5-diphenyltetrazolium bromide (MTT; Sigma) as described earlier (1). RAW 264.7 was seeded in triplicate at a density of 2×10^4 cells per well on a 96-well plate. […] MTT solution (0.5 mg/ml) was then added to each well and incubate for 4 h at 37° C. At the end of the incubation period, the medium was removed and the resulting purple formazan was solubilized with acidic isopropanol (0.1 N HCl in absolute isopropanol), and the absorbance was read at 570 nm using Biorad Microplate reader (Biorad, USA).

Data set [2] relates to LPS induced NO generation in RAW 264.7 cells. Kind of data set: Inhibition of LPS induced NO generation (nitrite, Griess reagent). Type of data set: cell-based, Mouse. The settings on record: for IC50: RAW 264.7 cells, LPS 1 μg/ml, 24 h, serum-free, read-out: NO inhibition (B) IC50; for Selectivity index (A/B): cytotoxicity IC50 / NO inhibition IC50, RAW 264.7 cells. On the procedure:
as §1, §2
Nitrite, a stable oxidized product of NO, was measured in culture supernatant using Griess reagent (Sigma Aldrich) according to a previously reported method (2). After overnight seeding in 96-well plate (2×10^4 cells/well), RAW 264.7 cell was treated with lipopolysaccharide (LPS; Sigma) at a concentration of 1 μg/ml along with different doses of compounds (as determined from cytotoxicity assay) in serum-free culture for 24 h. Following treatment, media was collected and centrifuged at 2,000 rpm for 5 min to remove cellular debris. 50 μl of this media was then reacted with equal volume of Griess reagent for 15 min at room temperature in dark and absorbance was taken at 540 nm using Microplate reader (Biorad, USA). Nitrite concentrations were determined using standard solutions of sodium nitrite prepared in cell culture medium.
On the technique in general: Griess reagent forms a coloured azo dye with nitrite.

In the next data set the test system is RAW 264.7 cells. Kind of data set: Cytotoxicity assay (MTT viability). Type of data set: cell-based, Mouse. On the procedure: as §1, §2, §3
Another data set has as its system H1N1 virus. To be noted: MDCK cells; Yang et al., Organic Letter 2013; cited from earlier work.

Compound `O=C(Cc1ccccc1)SC12CCC=C1C(=O)NC2=O` (stereo not drawn) [Compound 27, S-(1,3-Dioxo-2,3,4,5-tetrahydrocyclopenta[c]pyrrol-3a(1H)-yl) 2-phenylethanethioate] showed a melting point of 155 to 158 °C. The compound further displayed an IC50 at 24 h in data set [1] of 93.1 µM. Besides, the IC50 in data set [2] (Mus musculus, RAW264.7) came out at 30.6 µM. For the same compound, the “Selectivity index (A/B)” value in data set [2] was 3.042.

For the compound `O=C(S[C@]12CCC[C@H]1C(=O)NC2=O)c1ccccc1Cl` (relative stereo) [Compound 21, S-((3aR*,6aS*)-1,3-Dioxohexahydrocyclopenta[c]pyrrol-3a(1H)-yl) 2-chlorobenzothioate], the melting point fell in the range of 188 to 190 °C. Also, in data set [1], the IC50 at 24 h amounted to 834 µM. Further, the concentration for half-maximal inhibition (IC50) in data set [2] (Mus musculus, RAW264.7) turned out to be 59.8 µM. The “Selectivity index (A/B)” value in data set [2] stood at 13.95.

Turning to `CC(=O)O[C@@H]1CCC2=C1C(=O)NC2=O` [(−)-5, (R)-1,3-dioxo-1,2,3,4,5,6-hexahydrocyclopenta[c]pyrrol-4-yl], the half-maximal inhibitory concentration (IC50) with RAW 264.7 cells turned out to be 128 µM; in data set [2], 867 µM.

With `O=C(S[C@@]12CC[C@H](O)[C@@H]1C(=O)NC2=O)c1ccccc1Cl` (relative stereo) [Compound 13, S-((3aS*,6S*,6aR*)-6-Hydroxy-1,3-dioxohexahydrocyclopenta[c]pyrrol-3a(1H)-yl) 2-chlorobenzothioate], the melting point lay in the range of 173 to 174 °C. Moreover, the IC50 at 24 h in data set [1] turned out to be 668 µM. Besides, the concentration for half-maximal inhibition (IC50) in data set [2] (Mus musculus, RAW264.7) was 127 µM. For the same compound, in data set [2], the “Selectivity index (A/B)” value was 5.245.

In the case of `O=C(S[C@@]12CC[C@@H](O)[C@@H]1C(=O)NC2=O)c1ccc(O)cc1` [Nitrosporeusine B], in the data set on H1N1 virus, the “inhibitory activities against the H1N1 virus” value is recorded as “exhibited inhibitory activities”.

Take `O=C(S[C@@]12CC[C@@H](O)[C@@H]1C(=O)NC2=O)c1ccccc1` (relative stereo) [Compound 16, S-((3aS*,6R*,6aR*)-6-Hydroxy-1,3-dioxohexahydrocyclopenta[c]pyrrol-3a(1H)-yl) benzothioate]: the melting point was 180 to 182 °C. The compound also gave an IC50 at 24 h in data set [1] of 17100 µM. The IC50 in data set [2] (Mus musculus, RAW264.7) was 65.2 µM. Also, the “Selectivity index (A/B)” value in data set [2] is on record as 261.7025.

Take `O=C(S[C@@]12CC[C@H](O)[C@@H]1C(=O)NC2=O)c1ccc(O)cc1` [Nitrosporeusine A]: the “inhibitory activities against the H1N1 virus” value with H1N1 virus is given as “exhibited inhibitory activities”.

`CC(=O)S[C@]12CCC[C@H]1C(=O)NC2=O` (relative stereo) [Compound 18, S-((3aR*,6aS*)-1,3-Dioxohexahydrocyclopenta[c]pyrrol-3a(1H)-yl) ethanethioate]: the melting point lay in the range of 120 to 122 °C. Moreover, the IC50 at 24 h in data set [1] came to 674 µM. Besides, the 50% inhibitory concentration (IC50) in data set [2] (Mus musculus, RAW264.7) worked out at 59.2 µM. The “Selectivity index (A/B)” value in data set [2] is 11.39.

`CC(=O)S[C@@]12CC[C@@H](O)[C@@H]1C(=O)NC2=O` (relative stereo) [Compound 8, S-((3aS*,6R*,6aR*)-6-Hydroxy-1,3-dioxohexahydrocyclopenta[c]pyrrol-3a(1H)-yl) ethanethioate] returned a melting point of 120 to 129 °C. The compound also yielded an IC50 at 24 h in data set [1] of 857 µM. The concentration for half-maximal inhibition (IC50) in data set [2] (Mus musculus, RAW264.7) worked out at 833 µM. In data set [2], the “Selectivity index (A/B)” value is recorded as 1.029.

For `O=C(S[C@]12CC[C@@H](O)[C@H]1C(=O)NC2=O)c1ccccc1` (relative stereo) [Compound 15, S-((3aR*,6R*,6aS*)-6-Hydroxy-1,3-dioxohexahydrocyclopenta[c]pyrrol-3a(1H)-yl) benzothioate], the melting point lay in the range of 185 to 186 °C. Besides, the IC50 at 24 h in data set [1] is 479 µM. Further, the half-inhibitory concentration (IC50) in data set [2] (Mus musculus, RAW264.7) was determined as 72.4 µM. The “Selectivity index (A/B)” value in data set [2] turned out to be 6.622.

The compound `O=C(S[C@@]12CC[C@@H](O)[C@@H]1C(=O)NC2=O)c1ccccc1Cl` (relative stereo) [Compound 14, S-((3aS*,6R*,6aR*)-6-Hydroxy-1,3-dioxohexahydrocyclopenta[c]pyrrol-3a(1H)-yl) 2-chlorobenzothioate] returned a melting point of 154 to 158 °C. The compound further showed an IC50 at 24 h in data set [1] of 717 µM. The IC50 in data set [2] (Mus musculus, RAW264.7) was 178 µM. The “Selectivity index (A/B)” value in data set [2] is 4.022.
